Data set [1] has as its system HUVECs. As to the kind of experiment: VEGF-induced tube formation on Matrigel. It counts as cell-based, human. The note with it: VEGF 10 ng/ml, test substance 0.1, 1, 10, 100 nM, 24 hours. As for the experimental part: (§1) The anti-angiogenic activity of the test substance (SE101B2L) was evaluated using HUVECs. HUVECs were cultured in CEFOgro-HUVEC basal medium (CEFO Co., Ltd.) supplemented with growth supplements containing vascular endothelial cell growth-related factors and serum (HUVEC supplements, CEFO Co., Ltd.), which was used as vascular endothelial cell growth medium (hereinafter denoted as "growth medium").
(§2) The experiment was conducted by dividing the groups into an untreated group, a group treated with VEGF alone, and a group co-treated with VEGF and the test substance (SE101B2L).
First, tube formation ability was confirmed to determine whether the test substance inhibited VEGF-induced angiogenesis. HUVECs were seeded into a Matrigel-coated 48-well plate at 5 × 10^4 cells per well together with 0.5 ml of growth medium. VEGF was added to each VEGF-treated group to a final concentration of 10 ng/ml, while the test substance was added to each test substance-treated group to final concentrations of 0.1, 1, 10, and 100 nM. The test plate was incubated in an incubator with 5% CO2 at 37°C for 24 hours. After 24 hours, the degree of tube formation was observed under a microscope and photographed. The total tube length in each image was measured using the ImageJ program. The results were converted to values relative to the tube length for the untreated group.

Data set [2] relates to CNV-induced male chinchilla rabbits. As to the kind of experiment: Macular degeneration animal model: laser-induced CNV, retinal fluorescein fundus imaging. It counts as in vivo. The note with it: instillation 50 µL twice daily, Day 7 and Day 14, versus induced control group (G1). The text has this:
As a macular degeneration animal model, CNV-induced male chinchilla rabbits were used. The efficacy test using the CNV animal model was commissioned to HLB Biostep Co., Ltd. (formerly Notus Co., Ltd.). In order to induce CNV formation, a mydriatic agent (Mydriacyl 1% eye drops) was instilled into the right eye of each chinchilla rabbit, followed by anesthesia. Thereafter, the right eye was irradiated using a laser (LIGHTLas 532, LIGHTMED, USA) under conditions of a wavelength of 532 nm and a power of 150 mW for 0.1 seconds, thereby creating six wounds in the 6 o'clock direction centered on the optic nerve.
An induced control group (G1) was repeatedly administered 0.9% aqueous sodium chloride solution (vehicle) by instillation twice daily. […]
After initiation of administration to each group, a mydriatic agent (Mydriacyl 1% eye drops) was instilled into the right eye of each animal on Day 0, Day 7, and Day 14, followed by anesthesia. […] Confirmation of retinal CNV and evaluation of pharmacological efficacy were performed using retinal fluorescein fundus images, and image analysis was performed using the ImageJ software (NIH, Bethesda, MD) to analyze fluorescence intensity at irradiated sites.
Assuming normality for the results of the present test, significance between test groups was analyzed using parametric one-way analysis of variance (one-way ANOVA). […]

A further data set has as its system AKT and ERK. The data set is described as follows: VEGF-induced phosphorylation of AKT and ERK (immunoblot). It counts as cell-based, human. The note with it: HUVECs; VEGF co-treatment; test substance 0.1, 1, 10, 100 nM; 10 minutes. As for the experimental part: as §2
Additionally, whether the test substance could regulate the phosphorylation levels of AKT and ERK molecules, which are important in signaling related to VEGF-induced angiogenesis, was tested. Into a 6-well plate containing 2 ml of growth medium, 2 × 10^5 HUVECs were added and seeded, followed by incubation in an incubator with 5% CO2 at 37°C for one day. Subsequently, after washing the cells with phosphate-buffered saline (PBS), incubation was performed for an additional 6 hours using CEFOgro-HUVEC medium containing 1% fetal bovine serum. The prepared cells were divided into an untreated group, a group treated with VEGF alone, and groups co-treated with VEGF and the test substance (0.1, 1, 10, and 100 nM), followed by treatment with the test substance. […] Protein amounts of the cell lysates were measured by a Bradford assay, followed by separation using sodium dodecyl sulfate-polyacrylamide gel electrophoresis (SDS-PAGE). […]
(In general: In western blotting, separated proteins are transferred to a membrane and probed.)

Data set [3] relates to HUVECs. As to the kind of experiment: Cytotoxicity of test substance (CCK-8 cell viability). It counts as cell-based, human. The conditions noted are these: 24, 48 and 72 hours, up to a concentration of 1,000 nM (1 µM), relative to untreated group at 24 hours. Here is the method:
as §1
HUVECs were seeded into a 96-well plate at 5 × 10^3 cells per well together with 0.1 ml of growth medium. After incubation for one day, the cells were treated with the test substance (SE101B2L) such that the final concentration increased tenfold from 0.001 nM (denoted as log -3) to 10,000 nM (denoted as log 4). Thereafter, test groups were incubated for 24, 48, and 72 hours, and Cell Counting Kit-8 (CCK-8) was added at each predetermined time point, followed by incubation for an additional 2 hours, and absorbance was measured at 450 nm. Cell viability was calculated relative to the absorbance value of the untreated group at 24 hours.

In the case of “decylbenzoyl-Cys-Phe-Lys-amide [SE101B2L]”, the “tube formation ability (total tube length)” value in the data set on HUVECs [1] is recorded as “reduced by the test substance in a concentration-dependent manner”. For the same substance, the retinal fluorescence intensity result in data set [2] (G3: 3750 ppm) and in data set [2] (G4: 187.5 ppm) was “statistically significantly lower than those in the induced control group (G1) (p < 0.001)” each time. For the same substance, the “phosphorylation levels of signaling molecules (AKT, ERK)” value with AKT and ERK is “reduced by the test substance in a concentration-dependent manner”. The “cell viability (cytotoxicity)” value with HUVECs [3] is on record as “no significant difference in cell viability”.

The record behind these values is EP4813999A1, “NOVEL PEPTIDE DERIVATIVE AND PHARMACEUTICAL COMPOSITION FOR PREVENTING OR TREATING MACULAR DEGENERATION COMPRISING SAME” (Supadelixir Inc., priority 2023, dated 2026).
